{
  "source": "paper PMC3433414",
  "about": "“Oral Administration of the Pimelic Diphenylamide HDAC Inhibitor HDACi 4b Is Unsuitable for Chronic Inhibition of HDAC Activity in the CNS In Vivo” (PLoS ONE, 2012)",
  "key": {"[1]": {"settings": "dissolved upon heating; room temperature; cited from earlier work"}, "R6/2 mice": {"tested_on": "R6/2 mice", "settings": "cited from earlier work"}, "[2]": {"tested_on": "histone acetylation in mouse brain", "assay": "Histone acetylation in brain tissue (central pharmacodynamics)", "settings": "200 mg/kg sc; positive control", "protocol": "Cortical tissue from the mice was assessed using specific antibodies for increases in acetylation of specific lysine residues on Histones H3 (H3K4, H3K9, H3K14) and H4 (H4K5) as well as global acetylation of H3 (Ac-H3) and H4 (Ac-H4). The acetylation level was normalized to total H3 and H4 expression level. The samples from the rest of the brain were analyzed for terminal 4b levels at the time of sacrifice. […] Mouse brains were harvested, dissected, immediately frozen in liquid nitrogen and stored at −80°C. Mouse brain tissue was homogenized (polytron homogenizer, 20 s) in 2 volumes of histone extraction buffer (1×PBS, 5% Triton X-100 (v/v), 3 mM DTT, 1 mM orthovanadate, 5 mM NaF, 1 mM PMSF, 5 mM Na Butyrate, Roche complete protease inhibitor tablet) and centrifuged at 900 g for 8 min at 4°C. The resulting pellet was washed twice in 1 ml of histone extraction buffer before being re-suspended in 2–3 volumes of 0.2 M HCl. Samples were then vortexed briefly and left to shake vigorously for 3 h at 4°C using a VXR Vibrax 1.5 ml polypropylene tube shaker (IKA). After shaking, samples were centrifuged at 900 g for 8 min at 4°C and the resulting supernatant was retained and neutralized with 0.2 volumes of 1 M NaOH."}},
  "data": [
    {"molecule": "O=C(CCCCCCC(=O)Nc1ccccc1)NO", "note": "[SAHA]", "values": [
      {"measurement": "stability in cyclodextrins", "setting": "[1]", "value": "stable for seven days"},
      {"measurement": "motor dysfunction (rotarod performance, grip strength)", "setting": "R6/2 mice; drinking water", "value": "significant improvement in motor dysfunction"},
      {"measurement": "maximum tolerated dose", "setting": "R6/2 mice; in drinking water", "value": 0.67, "unit": "g/L"},
      {"measurement": "histone acetylation in cortical tissue", "setting": "[2]", "value": "robust enhancement of acetylation of H3K9, H4K5, and total acetylated levels of H3 and H4"}
    ]}
  ]
}
